Test [1] deals with H929 cells. Nature of the test: Cell viability assay (H929 10 FBS). The format is cell-based. The note with it: Homo sapiens, NCI-H929, 24 hours, read-out: H929_10FBS IC50. Summed up: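 ATP-based luminescence (CellTiter-Glo or ATPlite 1 Step, 30-60 min at RT) gauged viability of H929 myeloma cells after 24 h compound treatment at 37 °C. Cells plated at 4000 per well in 10% FBS RPMI 1640 supplemented with pyruvate, HEPES and glucose.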

Test [2] deals with MCL-1 (Homo sapiens (Human), UniProt Q07820). Nature of the test: Cell free Mcl-1:Bim affinity assay (fluorescence polarization competition). The note with it: 15 nM MCL-1, 5 nM FITC-Bim, 1 hour at room temperature; class symbols; read-out: BIM_Ki. The format is binding. The procedure, abridged: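 Fluorescence polarization competition: 10-point 3-fold compound dilutions displaced 5 nM FITC-Bim from 15 nM MCL-1 over 1 h at room temperature. Ki was derived from the fitted IC50 using the Nikolovska-Coleska equation, with percent inhibition normalized to DMSO and positive controls.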
MCL-1, sequence (Q07820 whole entry): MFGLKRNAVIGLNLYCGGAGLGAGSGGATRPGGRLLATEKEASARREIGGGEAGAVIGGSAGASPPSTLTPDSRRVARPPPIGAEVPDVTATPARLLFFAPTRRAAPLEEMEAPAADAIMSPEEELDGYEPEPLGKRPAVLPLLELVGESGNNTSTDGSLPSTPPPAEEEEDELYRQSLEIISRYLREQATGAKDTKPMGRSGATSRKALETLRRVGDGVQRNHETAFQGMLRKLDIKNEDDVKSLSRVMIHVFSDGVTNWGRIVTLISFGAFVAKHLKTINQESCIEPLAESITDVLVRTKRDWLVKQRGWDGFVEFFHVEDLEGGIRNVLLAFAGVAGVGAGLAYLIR
On the technique in general: In fluorescence polarisation assays a small probe gives low polarisation when free and higher when bound to something large.

pIC50, pKi: −log10 of the molar value.

The text below walks through data of patent US11130769B2 (Prelude Therapeutics Incorporated, priority 2018, dated 2021).

On to `CO[C@H]1/C=C/CN(C)C(C)(C)C(=O)NS(=O)(=O)c2ccc3c(c2)N(C[C@@H]2CC[C@H]21)C[C@@]1(CCCc2cc(Cl)ccc21)CO3` [Example 137, (3R,6R,7S,8E,22S)-6′-Chloro-7-methoxy-11,12,12-trimethyl-15,15-dioxo-spiro[20-oxa-15-thia-1,11,14-triazatetracyclo[14.7.2.03,6.019,24]pentacosa-8,16,18,24-tetraene-22,1′-tetralin]-13-one], for which the pIC50 in test [1] was greater than 6.00. In addition, the pKi in test [2] was 7.00 to 9.00.
In the same order, the values of `CNCCNC(=O)O[C@H]1/C=C/COC(C)(C)C(=O)NS(=O)(=O)c2ccc3c(c2)N(C[C@@H]2CC[C@H]21)C[C@@]1(CCCc2cc(Cl)ccc21)CO3` [Example 157, [(3R,6R,7S,8E,22S)-6′-Chloro-12,12-dimethyl-13,15,15-trioxo-spiro[11,20-dioxa-15-thia-1,14-diazatetracyclo[14.7.2.03,6.019,24]pentacosa-8,16,18,24-tetraene-22,1′-tetralin]-7-yl] N-[2-(methylamino)ethyl]carbamate] are greater than 6.30 and greater than 9.00.
In the same order, the values of `CN(C(=O)O[C@H]1/C=C/COC(C)(C)C(=O)NS(=O)(=O)c2ccc3c(c2)N(C[C@@H]2CC[C@H]21)C[C@@]1(CCOc2cc(Cl)ccc21)CO3)C1COC1` [Example 303, [(3R,6R,7S,8E,22S)-7′-Chloro-12,12-dimethyl-13,15,15-trioxo-spiro[11,20-dioxa-15-thia-1,14-diazatetracyclo[14.7.2.03,6.019,24]pentacosa-8,16,18,24-tetraene-22,4′-chromane]-7-yl] N-methyl-N-(oxetan-3-yl)carbamate] are greater than 6.30 and greater than 9.00.
In the same order, the values of `CO[C@H]1/C=C/CNCC2(CCC2)C(=O)NS(=O)(=O)c2ccc3c(c2)N(C[C@H]2CCC21)CC1(CCCc2cc(Cl)ccc21)CO3` (stereo partly drawn) [Example 26, (3R,6R,7R,8E,23S)-6′-Chloro-7-methoxy-13,13-(1,3-propylene)-16,16-dioxo-spiro[21-oxa-16-thia-1,11,15-triazatetracyclo[15.7.2.03,6.020,25]hexacosa[8,17(26),18,20(25)]tetraene-23,1′-tetralin]-14-one] are less than 6.00 and 7.00 to 9.00.
Take `C[C@H]1CN(C(=O)O[C@H]2/C=C/COC(C)(C)C(=O)NS(=O)(=O)c3ccc4c(c3)N(C[C@@H]3CC[C@H]32)C[C@@]2(CCCc3cc(Cl)ccc32)CO4)CCN1` [Example 176, [(3R,6R,7S,8E,22S)-6′-Chloro-12,12-dimethyl-13,15,15-trioxo-spiro[11,20-dioxa-15-thia-1,14-diazatetracyclo[14.7.2.03,6.019,24]pentacosa-8,16,18,24-tetraene-22,1′-tetralin]-7-yl] (3S)-3-methylpiperazine-1-carboxylate]: the pIC50 in test [1] was greater than 6.30. Further, the pKi in test [2] is greater than 9.00.
The like results for `CN1C(=O)OC[C@@H]2CC[C@H]2CN2C[C@@]3(CCCc4cc(Cl)ccc43)COc3ccc(cc32)S(=O)(=O)NC(=O)N2CC[C@H]1C2` [Example 103, (3R,6R,11S,24S)-6′-Chloro-10-methyl-17,17-dioxo-spiro[8,22-dioxa-17λ^6-thia-1,10,14,16-tetrazapentacyclo[16.7.2.1^11,14.0{circumflex over (°)}3,6.0^21,26]octacosa-18,20,26-triene-24,1′-tetralin]-9,15-dione] were, in that order, less than 6.00 and greater than 9.00.
On to `C[C@H]1C(=O)NS(=O)(=O)c2ccc3c(c2)N(C[C@@H]2CC[C@H]2[C@@H](OC(=O)N(C)C)/C=C/CN1C)C[C@@]1(CCCc2cc(Cl)ccc21)CO3` [Example 147, [(3R,6R,7S,8E,12S,22S)-6′-Chloro-11,12-dimethyl-13,15,15-trioxo-spiro[20-oxa-15-thia-1,11,14-triazatetracyclo[14.7.2.03,6.019,24]pentacosa-8,16,18,24-tetraene-22,1′-tetralin]-7-yl] N,N-dimethylcarbamate], for which the pIC50 in test [1] is greater than 6.30. Further, in test [2], the pKi is greater than 9.00.
The like results for `CC1(C)OC/C=C/[C@@H](O)[C@@H]2CC[C@H]2CN2C[C@@]3(CCCc4cc(Cl)ccc43)COc3ccc(cc32)S(=O)(=O)NC1=O` [Example 36, (3R,6R,7R,8E,22S)-6′-Chloro-7-hydroxy-12,12-dimethyl-15,15-dioxo-spiro[11,20-dioxa-15-thia-1,14-diazatetracyclo[14.7.2.03,6.019,24]pentacosa-8,16,18,24-tetraene-22,1′-tetralin]-13-one] were, in that order, greater than 6.00 and greater than 9.00.
The like results for `CN(C)C(=O)O[C@@H]1/C=C/COC(C)(C)C(=O)NS(=O)(=O)c2ccc3c(c2)N(C[C@@H]2CC[C@H]21)C[C@@]1(CCCc2cc(Cl)ccc21)CO3` [Example 37, [(3R,6R,7R,8E,22S)-6′-Chloro-12,12-dimethyl-13,15,15-trioxo-spiro[11,20-dioxa-15-thia-1,14-diazatetracyclo[14.7.2.03,6.019,24]pentacosa-8,16,18,24-tetraene-22,1′-tetralin]-7-yl] N,N-dimethylcarbamate] were, in that order, greater than 6.30 and greater than 9.00.
With `CN(C(=O)O[C@H]1/C=C/COC(C)(C)C(=O)NS(=O)(=O)c2ccc3c(c2)N(C[C@@H]2CC[C@H]21)C[C@]1(CO3)OCCc2cc(Cl)ccc21)[C@@H]1CCOC1` [Example 299, [(3R,6R,7S,8E,22R)-6′-Chloro-12,12-dimethyl-13,15,15-trioxo-spiro[11,20-dioxa-15-thia-1,14-diazatetracyclo[14.7.2.03,6.019,24]pentacosa-8,16,18,24-tetraene-22,1′-isochromane]-7-yl] N-methyl-N-[(3R)-tetrahydrofuran-3-yl]carbamate], the pIC50 in test [1] is greater than 6.00. Besides, in test [2], the pKi is greater than 9.00.
The like results for `CC1(C)OC/C=C/[C@H](OC(=O)N2CCN3CCOC[C@H]3C2)[C@@H]2CC[C@H]2CN2C[C@@]3(CCCc4cc(Cl)ccc43)COc3ccc(cc32)S(=O)(=O)NC1=O` [Example 171, [(3R,6R,7S,8E,22S)-6′-Chloro-12,12-dimethyl-13,15,15-trioxo-spiro[11,20-dioxa-15,6-thia-1,14-diazatetracyclo[14.7.2.03,6.019,24]pentacosa-8,16,18,24-tetraene-22,1′-tetralin]-7-yl](9aS)-3,4,6,7,9,9a-hexahydro-1H-pyrazino[2,1-c][1,4]oxazine-8-carboxylate] were, in that order, greater than 6.30 and greater than 9.00.
Consider `CN1CC[C@@H](NC(=O)O[C@H]2/C=C/COC(C)(C)C(=O)NS(=O)(=O)c3ccc4c(c3)N(C[C@@H]3CC[C@H]32)C[C@@]2(CCCc3cc(Cl)ccc32)CO4)C1` [Example 152, [(3R,6R,7S,8E,22S)-6′-Chloro-12,12-dimethyl-13,15,15-trioxo-spiro[11,20-dioxa-15-thia-1,14-diazatetracyclo[14.7.2.03,6.019,24]pentacosa-8,16,18,24-tetraene-22,1′-tetralin]-7-yl] N-[(3R)-1-methylpyrrolidin-3-yl]carbamate], for which the negative-log IC50 (pIC50) in test [1] was greater than 6.30. Also, in test [2], the pKi was greater than 9.00.
As for `O=C(O[C@H]1/C=C/COC2(CCC2)C(=O)NS(=O)(=O)c2ccc3c(c2)N(C[C@@H]2CC[C@H]21)C[C@@]1(CCCc2cc(Cl)ccc21)CO3)N1CCC1` [Example 232, [(3R,6R,7S,8E,22S)-6′-Chloro-12,12-(1,3-propylene)-13,15,15-trioxo-spiro[11,20-dioxa-15-thia-1,14-diazatetracyclo[14.7.2.03,6.019,24]pentacosa-8,16(25),17,19(24)-tetraene-22,1′-tetralin]-7-yl] N,N-1,3-propylene carbamate], the pIC50 in test [1] was greater than 6.30. Further, the pKi in test [2] is greater than 9.00.
In the same order, the values of `CCN1C/C=C/[C@H](OC(=O)N2CCN(CCOC)CC2)[C@@H]2CC[C@H]2CN2C[C@@]3(CCCc4cc(Cl)ccc43)COc3ccc(cc32)S(=O)(=O)NC(=O)C1(C)C` [Example 225, [(3R,6R,7S,8E,22S)-6′-Chloro-11-ethyl-12,12-dimethyl-13,15,15-trioxo-spiro[20-oxa-15-thia-1,11,14-triazatetracyclo[14.7.2.03,6.019,24]pentacosa-8,16,18,24-tetraene-22,1′-tetralin]-7-yl] 4-(2-methoxyethyl)piperazine-1-carboxylate] are greater than 6.30 and 7.00 to 9.00.
The like results for `CC1(C)OC/C=C/[C@H](OCC(=O)N2CCCC2)[C@@H]2CC[C@H]2CN2C[C@@]3(CCCc4cc(Cl)ccc43)COc3ccc(cc32)S(=O)(=O)NC1=O` [Example 283, (3R,6R,7S,8E,22S)-6′-Chloro-12,12-dimethyl-15,15-dioxo-7-(2-oxo-2-pyrrolidin-1-yl-ethoxy)spiro[11,20-dioxa-15-thia-1,14-diazatetracyclo[14.7.2.03,6.019,24]pentacosa-8,16,18,24-tetraene-22,1′-tetralin]-13-one] were, in that order, greater than 6.30 and greater than 9.00.
The like results for `CCN1C/C=C/[C@H](OC(=O)N2CCC(OC)CC2)[C@@H]2CC[C@H]2CN2C[C@@]3(CCCc4cc(Cl)ccc43)COc3ccc(cc32)S(=O)(=O)NC(=O)C1(C)C` [Example 222, [(3R,6R,7S,8E,22S)-6′-Chloro-11-ethyl-12,12-dimethyl-13,15,15-trioxo-spiro[20-oxa-15-thia-1,11,14-triazatetracyclo[14.7.2.03,6.019,24]pentacosa-8,16,18,24-tetraene-22,1′-tetralin]-7-yl] 4-methoxypiperidine-1-carboxylate] were, in that order, greater than 6.30 and greater than 9.00.

By pIC50 is commonly meant the negative decadic logarithm of the IC50, by convention in mol/L.
